Assay results published in patent US20050020534A1, “Method for treating diseases using HSP90-inhibiting agents in combination with antimetabolites” (Kosan Biosciences, Inc., priority 2003, published 2005).
Read-outs that look alike come from different tables or passages of the source.

How the values were obtained:
[1] = system: DLD-1 cells (human colorectal cancer cells); experiment: MTS cell viability assay, drug combination effect analysis (combination index) in DLD-1 cells; assay type: cell-based; conditions: combination of antimetabolite with 17-AAG, CI<1 synergism, CI=1 additivity, CI>1 antagonism; for CI values, 17-AAG Pre-Administration: 17-AAG 24 hours before antimetabolite (48 hours); for CI values, 17-AAG Post-Administration: antimetabolite 24 hours, then 17-AAG for 48 hours
Experimental: Human colon adenocarcinoma cell line, DLD-1, and human breast adenocarcinoma cell line, SKBr-3, were obtained from American Type Culture Collection (manassas, Va.). […] Other cytotoxic agents were purchased commercially from suppliers such as Sigma Chemical Co. (St. Louis, Mo.) and Sequoia Research Products (Oxford, UK). Cells were seeded in duplicate in 96-well microtiter plates at a density of 5,000 cells per well and allowed to attach overnight. […] Cell viability was determined using the MTS assay (Promega). […] Based on the IC50 values of each individual drug, combined drug treatment was designed at constant ratios of two drugs, i.e., equivalent to the ratio of their IC50. Two treatment schedules were used: In one schedule, the cells were exposed to 24 hours of 17-AAG or 17-DMAG. The drug was then added to the cells and incubated for 48 hours. […] Cell viability was determined by the MTS assay. Synergism, additivity or antagonism was determined by median effect analysis using the combination index (CI) calculated using Calcusyn (Biosoft, Cambridge, UK). The combination index is defined as follows: […] The quantities [Dx]1 and [Dx]2 represent the concentrations of the first and second drug, respectively, that when used alone provide a response of x % in the assay. […] The “enhancing” effect of two drugs can also be determined.

[2] = system: SKBr cells (human breast cancer cells); experiment: MTS cell viability assay, drug combination effect analysis (combination index) in SKBr-3 cells; assay type: cell-based; conditions: combination of antimetabolite with 17-AAG, CI<1 synergism, CI=1 additivity, CI>1 antagonism; for CI values, 17-AAG Pre-Administration: 17-AAG 24 hours before antimetabolite (48 hours)
Experimental: Human colon adenocarcinoma cell line, DLD-1, and human breast adenocarcinoma cell line, SKBr-3, were obtained from American Type Culture Collection (manassas, Va.). […] Other cytotoxic agents were purchased commercially from suppliers such as Sigma Chemical Co. (St. Louis, Mo.) and Sequoia Research Products (Oxford, UK). Cells were seeded in duplicate in 96-well microtiter plates at a density of 5,000 cells per well and allowed to attach overnight. […] Cell viability was determined using the MTS assay (Promega). […] Based on the IC50 values of each individual drug, combined drug treatment was designed at constant ratios of two drugs, i.e., equivalent to the ratio of their IC50. Two treatment schedules were used: In one schedule, the cells were exposed to 24 hours of 17-AAG or 17-DMAG. The drug was then added to the cells and incubated for 48 hours. […] Cell viability was determined by the MTS assay. Synergism, additivity or antagonism was determined by median effect analysis using the combination index (CI) calculated using Calcusyn (Biosoft, Cambridge, UK). The combination index is defined as follows: […] The “enhancing” effect of two drugs can also be determined.

ErbB2 protein [3] = experiment: Expression of ErbB2 protein in SKBr3 cells; assay type: cell-based, human
ErbB2 protein [4] = experiment: Expression of ErbB2 protein in glioma cells; assay type: cell-based
[5] = clinical trials, sole therapeutic agent, cited from earlier work

Structure (SMILES) | CI values, 17-AAG Pre-Administration [1] | CI values, 17-AAG Post-Administration [1] | CI values, 17-AAG Pre-Administration [2] | expression of ErbB2 protein (ErbB2 protein [3]) | expression of ErbB2 protein (ErbB2 protein [4]) | MTD ([5]; daily ×5 schedule) | MTD ([5]; once-weekly regimen) | MTD ([5]; twice-weekly regimen) | CI values, 17-AAG Post-Administration ([2]; antimetabolite 24 hours, then 17-AAG for 48 hours)
O=c1[nH]cc(F)c(=O)[nH]1 [5-Fluorouracil, 5-fluorouracil] | 0.96 ± 0.16 | 0.33 ± 0.08 | 0.65 ± 0.48 |  |  |  |  |  | 
C=CCNC1=C2C[C@@H](C)C[C@H](OC)[C@H](O)[C@@H](C)/C=C(\C)[C@H](OC(N)=O)[C@@H](OC)/C=C\C=C(/C)C(=O)NC(=CC1=O)C2=O [17-AAG, 17-(allylamino)-17-desmethoxygeldanamycin] |  |  |  | reduced the expression | reduced the expression | about 40 mg/m^2 | about 308 mg/m^2 | about 220 mg/m^2 | 
CO[C@H]1/C=C\C=C(/C)C(=O)NC2=CC(=O)C(NCCN(C)C)=C(C[C@@H](C)C[C@H](OC)[C@H](O)[C@@H](C)/C=C(\C)[C@@H]1OC(N)=O)C2=O [17-DMAG, 17-(2-dimethylaminoethyl)amino-17-desmethoxygeldanamycin] |  |  |  | reduced the expression | reduced the expression |  |  |  | 
Nc1ccn([C@@H]2O[C@H](CO)[C@@H](O)C2(F)F)c(=O)n1 [Gemcitabine, gemcitabine] | 0.45 ± 0.19 | 0.77 ± 0.23 | 1.79 ± 0.54 |  |  |  |  |  | 0.86 ± 0.19
CN(Cc1cnc2nc(N)nc(N)c2n1)c1ccc(C(=O)N[C@@H](CCC(=O)O)C(=O)O)cc1 [Methotrexate, methotrexate] | 0.83 ± 0.14 | 0.71 ± 0.35 |  |  |  |  |  |  | 
